Structures are written as SMILES. Where a name gives a salt, the structure may show the parent alone.

For this assay, the system named is recombinant guanylate cyclase reporter cell line. Description: Effect on a recombinant guanylate cyclase reporter cell line. The following applies: in some cases mean values from individual determinations, read-out: MEC (minimum effective concentration). The format is cell-based. As for the experimental part:
B-2. Effect on a Recombinant Guanylate Cyclase Reporter Cell Line
The cellular activity of the compounds according to the invention is determined using a recombinant guanylate cyclase reporter cell line, as described in F. Wunder et al., Anal. Biochem. 339, 104-112 (2005).
Representative MEC values (MEC=minimum effective concentration) for the compounds of the invention are shown in the table below (in some cases as mean values from individual determinations): […]
Turning to `CCN(C)Cc1cccc(-c2c(C)nn3c(OCc4c(F)cccc4F)cc(C)cc23)c1` [Example 10, N-(3-{7-[(2,6-Difluorobenzyl)oxy]-2,5-dimethylpyrazolo[1,5-a]pyridin-3-yl}benzyl)-N-methylethanamine], the minimal effective concentration turned out to be 0.065 µM.
For `Cc1cc(OCc2c(F)cccc2F)n2nc(C)c(-c3cn[nH]c3)c2c1` [Example 1, 7-[(2,6-Difluorobenzyl)oxy]-2,5-dimethyl-3-(1H-pyrazol-4-yl)pyrazolo[1,5-a]pyridine] the value was 0.03 µM.
For `Cc1cn2c(-c3nc(N)nc(N)n3)c(C)nc2c(OCc2c(F)cccc2F)n1` [Example 20, 6-{8-[(2,6-Difluorobenzyl)oxy]-2,6-dimethylimidazo[1,2-a]pyrazin-3-yl}-1,3,5-triazine-2,4-diamine trifluoroacetate] the value was 2 µM.
The result for `CC(=O)Nc1cccc(-c2c(C)nn3c(OCc4c(F)cccc4F)cc(C)cc23)c1` [Example 3, 1-(3-{7-[(2,6-Difluorobenzyl)oxy]-2,5-dimethylpyrazolo[1,5-a]pyridin-3-yl}phenyl)acetamide] reads 0.065 µM; that for `Cc1cc(OCc2c(F)cccc2F)n2nc(C)c(-c3cnn(CCN4CCOCC4)c3)c2c1` [Example 5, 7-[(2,6-Difluorobenzyl)oxy]-2,5-dimethyl-3-{1-[2-(morpholin-4-yl)ethyl]-1H-pyrazol-4-yl}pyrazolo[1,5-a]pyridine], 0.07 µM.
Take `Cc1cc(OCc2c(F)cccc2F)n2nc(C3CC3)c(-c3cnn(CCN4CCOCC4)c3)c2c1` [Example 30, 2-Cyclopropyl-7-[(2,6-difluorobenzyl)oxy]-5-methyl-3-{1-[2-(morpholin-4-yl)ethyl]-1H-pyrazol-4-yl}pyrazolo[1,5-a]pyridine]: the minimal effective concentration worked out at 0.01 µM.
Consider `Cc1cc(OCc2c(F)cccc2F)n2nc(C)c(-c3cccc(N4CCCC4)c3)c2c1` [Example 14, 7-[(2,6-Difluorobenzyl)oxy]-2,5-dimethyl-3-[3-(pyrrolidin-1-yl)phenyl]pyrazolo[1,5-a]pyridine], for which the minimal effective concentration was found to be 2 µM.
For `Cc1cc(OCc2c(F)cccc2F)n2nc(C)c(-c3cnc(Cl)c(C)c3)c2c1` [Example 9, 3-(6-Chloro-5-methylpyridin-3-yl)-7-[(2,6-difluorobenzyl)oxy]-2,5-dimethylpyrazolo[1,5-a]pyridine] the value was 3 µM; for `Cc1cc(OCc2c(F)cccc2F)n2nc(C)c(-c3cc(F)ncc3F)c2c1` [Example 17, 7-[(2,6-Difluorobenzyl)oxy]-3-(2,5-difluoropyridin-4-yl)-2,5-dimethylpyrazolo[1,5-a]pyridine], 2 µM; for `Cc1cc(OCc2c(F)cccc2F)n2nc(C)c(-c3nc(NCC(C)(C)N)c4c(n3)NC(=O)C4(C)C)c2c1` [Example 35, 4-[(2-Amino-2-methylpropyl)amino]-2-{7-[(2,6-difluorobenzyl)oxy]-2,5-dimethylpyrazolo[1,5-a]pyridin-3-yl}-5,5-dimethyl-5,7-dihydro-6H-pyrrolo[2,3-d]pyrimidin-6-one], 3 µM.
